In PubChem BioAssay (NCI):
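Step 1: Grow cells in 96-well plates. Step 2: Expose to compound for 48 hours at 5 concentrations. Step 3: Interpolate endpoints linearly; if unreached, use highest concentration. At the TGI there is no net growth.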

Tests used:
Experiment in all cases: inhibition of tumour cell growth, NCI panel, 48 h
BT-549 breast = system: BT-549 breast
HL-60(TB) leukemia = system: HL-60(TB) leukemia
HOP-62 NSCLC = system: HOP-62 NSCLC
NCI-H522 lung = system: NCI-H522 lung
SF-268 CNS = system: SF-268 CNS
SK-MEL-5 melanoma = system: SK-MEL-5 melanoma
UO-31 renal = system: UO-31 renal

SMILES	TGI (BT-549 breast) [µM]	TGI (HL-60(TB) leukemia) [µM]	TGI (HOP-62 NSCLC) [µM]	TGI (NCI-H522 lung) [µM]	TGI (SF-268 CNS) [µM]	TGI (SK-MEL-5 melanoma) [µM]	TGI (UO-31 renal) [µM]
C[N+](CCCl)(CCCl)Cc1cccc2cccc([N+](=O)[O-])c12	> 100	> 100	> 100	> 100	> 100	> 100	> 100
CC(C)C(=O)[C@@]1(C)SC[C@H]2CCN=C21	> 100	> 100		> 100		> 100	> 100
CNC(C#N)c1ccc(OC)cc1 (configuration not stated)	> 100	> 100		> 100	> 100	> 100	> 100
COC(=O)C1=C(C)NC2=C(C(=O)c3ccccc32)C1c1cn(-c2ccccc2)nc1-c1ccccc1 (configuration not stated)	> 100	> 100	> 100	> 100	> 100	> 100	> 100
CCOC(=O)c1c(-c2ccc(OC)cc2)c(C#N)c(=S)n(C2OC(COC(C)=O)C(OC(C)=O)C(OC(C)=O)C2OC(C)=O)c1-c1ccccc1 (configuration not stated)	> 100	> 100	> 100		> 100	> 100	> 100
CCOc1cc2c(OCc3ccccc3)cc3c4cc(OC)c(OC)cc4c[n+](C)c3c2cc1OC	4.72		19.6	1.43	4.91		> 80.4
COc1ccc(N2C(=O)C(=O)N(c3ccccc3[N+](=O)[O-])C2=S)cc1		> 100	> 100	24.4	> 100	32.5	> 100
CN=c1nc2sc3c(c2c(NC(=S)NC)s1)CCCC3	> 100	> 100	> 100	> 100	87.5	> 100	> 100
COC(=O)CCC1=CCC2(SC)C(=O)Nc3cccc1c32 (configuration not stated)	> 100	> 100	> 100	> 100	> 100	> 100	> 100
O=C1NC(=O)C(c2c[nH]c3ccccc23)=C1c1cnc[nH]1	> 100	> 100	> 100	> 100	> 100	78.1	> 100
NS(=O)(=O)c1ccc(N=Nc2nc3[nH]c(=O)[nH]c(=O)c3[nH]2)cc1	> 100		> 100	> 100	> 100	> 100	> 100
COc1cc(C2SCC(=O)N2c2ccccn2)cc(OC)c1OC (configuration not stated)	> 100	> 100		> 100	> 100	> 100	> 100
COC(=O)c1cc2c3c(ccc2[nH]1)N(C(=O)c1cc2cc(OC)c(OC)c(OC)c2[nH]1)CC3CCl (configuration not stated)	> 100		> 72	> 100	> 100	> 100	> 100
CCCCN(CCCC)CC(O)c1cc(-c2ccc(C(F)(F)F)cc2)nc(-c2ccc(C(F)(F)F)cc2)c1 (configuration not stated)		> 100	> 100	> 100	> 100		> 100
CCCCC1=NNC(=O)C1	> 100	> 100	> 100	> 100		> 100	> 100
CC(C)(C)NC(NC(C)(C)C)=C(/C=C(/Cl)[N+](=O)[O-])[N+](=O)[O-]		53.5	> 100	> 100	> 100	> 100	> 100
CC(C)(Cl)C(Br)CCC(C)(Cl)C(Br)CBr (configuration not stated)	42.9	35.4	57.3	35.8	> 100	34.5	> 100
CC(=O)Nc1ccc(N2C(=O)/C(=C\c3cccc(Oc4ccccc4)c3)S(=O)(=O)C2c2ccccc2)cc1 (configuration not stated)	> 100	56.6	> 100	> 100		> 100	> 100
CNc1ccc(C(=O)CC(O)CCC(C)C2OC(=O)CC(O)CC(=O)CC(O)CC(O)CC(O)CC(O)CC3(O)CC(O)C(C(=O)NCCN(C)C)C(CC(OC4OC(C)C(O)C(NC(=O)CN5CCN(C)CC5)C4O)/C=C/C=C/C=C/C=C\C=C/C=C/C=C/C2C)O3)cc1 (configuration not stated)	> 100	> 100	> 100		> 100		> 100
COc1ccccc1/C(=N\OCCC(=O)O)c1cccs1	> 100	> 100	> 100		> 100	> 100	> 100
Nc1ccc2c(c1)N(C(=O)c1cc3cc(NC(=O)c4cc5ccccc5o4)ccc3[nH]1)CC2CCl (configuration not stated)	1.9	> 100	0.804				13.1
CC(=O)c1ccc(NCc2cc(O)ccc2O)cc1		76.9	42	> 100		57.2	23.9

SMILES	TGI (BT-549 breast) [µM]	TGI (HL-60(TB) leukemia) [µM]	TGI (HOP-62 NSCLC) [µM]	TGI (NCI-H522 lung) [µM]	TGI (SF-268 CNS) [µM]	TGI (SK-MEL-5 melanoma) [µM]	TGI (UO-31 renal) [µM]
CC(C)(C)OC(=O)N1CCc2[nH][nH]c(=O)c2C1	> 100	> 100	> 100	> 100	> 100		> 100
OCCCCCCCCCCCOc1ccc(C2OCC3(CO2)COC(c2ccc(OCCCCCCCCCCCO)cc2)OC3)cc1 (configuration not stated)	> 50		> 50		> 50	> 50	> 50
CN(CC(=O)O)c1ncc2c(n1)-c1ccccc1SC2		> 100		> 100	> 100	> 100	> 100
CCCCCCCCCC1(N=[N+]=[N-])C(=O)c2ccccc2N(C)C1=O (configuration not stated)	74.6	> 100	> 100		> 100	26.6	> 100
CC(C)CC1C(=O)NCCC(NC(=O)C(Cc2ccc(OC(C)(C)C)cc2)NC(=O)OC(C)(C)C)C(=O)NC(Cc2ccccc2)C(=O)NC(Cc2ccccc2)NC1=O (configuration not stated)		26.9	37.7	35.4	36.1	85.9	> 100
CS(=O)(=O)O[C@H]1CN2C[C@@H](O)[C@@H](O)[C@H]2[C@H]1CO	> 100		> 100		> 100	> 100	> 100
CN(C(=O)C1=CCC2(CC1)OCCO2)c1ccccc1OS(=O)(=O)C(F)(F)F		> 100	> 100		97.6	> 100	> 100
OC1[C@@H]2[C@@H](O)[C@H](O)[C@@H](O)N2C[C@@H]1O (some centres not stated)	> 100		> 100	> 100	> 100	> 100	> 100
CC(C)(C)[Si](C)(C)OCC1OC(n2ccc(N)nc2=O)C(O[Si](C)(C)C(C)(C)C)C1O[Si](C)(C)C(C)(C)C (configuration not stated)	3.73		4.85	3.36	7.27	3.43	3.07
O=C1NC(NNc2ccccc2)=N/C1=C\c1ccccc1O	> 100	> 100	> 100	> 100	> 100		> 100
CCc1cc2c(oc3cc4ccccc4cc32)c(=O)[nH]1	> 10	> 10		> 10	> 10		> 10
COc1cc(/C=C2\C[C@H]3[C@@H]4CCc5cc(O)ccc5[C@H]4CC[C@]3(C)C2=O)cc(OC)c1OC	42.6		27.9	3.95	24	38.4	29.4
CC1(C)CC(=O)c2[nH]c3ccccc3c2CC(=O)NCCc2cn1cn2	> 100			> 100	> 100	> 100	> 100
COC(=O)c1ccc(C(=O)NC(Cc2ccc(Oc3cc(CC(NC(=O)c4ccccc4C(=O)OC)C(=O)OC)ccc3OC)cc2)C(=O)OC)cc1 (configuration not stated)	> 100	> 100	> 100		> 100		> 100
Cc1cc(C)nc(NC(=O)c2ccc(Br)s2)c1	> 100		> 100	> 100	> 100	17.6	> 100
Oc1c(C2=NNC(c3ccc(Cl)cc3Cl)C2)ccc2ccccc12 (configuration not stated)	> 100		> 100	> 100	> 100	> 100	> 100
O=c1cc(N2CCOCC2)[nH]c(=O)n1-c1ccc(F)cc1	> 100	> 100	> 100	> 100	> 100		
CC(C)(Br)C(Br)CCC1(C2CO2)CO1 (configuration not stated)	> 5		> 5	> 5	> 5	> 5	> 5
FC(F)(F)c1ccc(N=C/C=C(/Nc2ccc(C(F)(F)F)cc2)c2ccc(Cl)cc2)cc1		65.5	40.1	31.3	33.2	22.2	> 100
CC(=O)Nc1ccc(C(=O)NN2C(=O)CSC2c2ccc([N+](=O)[O-])cc2)cc1 (configuration not stated)			> 100		> 100	> 100	> 100
OCC1OC(c2cccc3cc(O)c(O)cc23)CC1O (configuration not stated)	> 100	> 100	> 100	> 100	> 100		> 100
